This is an account of results in patent publication US20140005103A1, “SULFONAMIDE DERIVATIVES AND METHODS OF USE THEREOF FOR IMPROVING THE PHARMACOKINETICS OF A DRUG” (Merck, Sharp & Dohme Corp., priority 2012, published 2014).

The target in one series is T1, CYP2D6 (Homo sapiens, UniProt P10635).
T1 construct: 0.1 mg/mL protein human liver microsomes (BD Gentest); tissue BD Gentest; host or cells: human liver microsomes
Nature of the series: Cocktail CYP assay, dextromethorphan O-demethylation. The format is in vitro ADME. Conditions: human liver microsomes, 5 μM dextromethorphan; test concentrations up to 10 μM.

The target in the next series is T2, CYP2C19 (Homo sapiens, UniProt P33261).
T2 construct: 0.1 mg/mL protein human liver microsomes (BD Gentest); tissue BD Gentest; host or cells: human liver microsomes
T2 sequence (P33261 whole entry): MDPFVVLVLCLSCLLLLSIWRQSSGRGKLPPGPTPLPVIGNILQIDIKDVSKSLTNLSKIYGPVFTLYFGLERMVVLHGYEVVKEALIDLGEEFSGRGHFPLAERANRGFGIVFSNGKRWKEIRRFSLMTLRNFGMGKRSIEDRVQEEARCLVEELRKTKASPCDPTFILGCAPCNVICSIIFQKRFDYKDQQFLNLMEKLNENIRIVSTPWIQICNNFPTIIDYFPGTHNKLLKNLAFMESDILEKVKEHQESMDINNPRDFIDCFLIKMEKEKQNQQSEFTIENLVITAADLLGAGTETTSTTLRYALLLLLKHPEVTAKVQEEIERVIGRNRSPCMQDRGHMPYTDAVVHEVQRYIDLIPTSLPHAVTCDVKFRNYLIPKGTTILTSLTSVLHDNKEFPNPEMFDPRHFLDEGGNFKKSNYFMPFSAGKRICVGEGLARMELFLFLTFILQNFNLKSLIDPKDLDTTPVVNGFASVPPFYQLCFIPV
Kind of series: Cocktail CYP assay, mephenytoin 4'-hydroxylation. Type of series: in vitro ADME. Conditions: human liver microsomes, 30 μM mephenytoin; test concentrations up to 10 μM. In general terms: Liver microsomes are a subcellular fraction often used to study metabolism.

The target in another series is T3, CYP1A2 (Homo sapiens, UniProt P05177).
T3 construct: 0.1 mg/mL protein human liver microsomes (BD Gentest); tissue BD Gentest; host or cells: human liver microsomes
T3 sequence (P05177 1-516): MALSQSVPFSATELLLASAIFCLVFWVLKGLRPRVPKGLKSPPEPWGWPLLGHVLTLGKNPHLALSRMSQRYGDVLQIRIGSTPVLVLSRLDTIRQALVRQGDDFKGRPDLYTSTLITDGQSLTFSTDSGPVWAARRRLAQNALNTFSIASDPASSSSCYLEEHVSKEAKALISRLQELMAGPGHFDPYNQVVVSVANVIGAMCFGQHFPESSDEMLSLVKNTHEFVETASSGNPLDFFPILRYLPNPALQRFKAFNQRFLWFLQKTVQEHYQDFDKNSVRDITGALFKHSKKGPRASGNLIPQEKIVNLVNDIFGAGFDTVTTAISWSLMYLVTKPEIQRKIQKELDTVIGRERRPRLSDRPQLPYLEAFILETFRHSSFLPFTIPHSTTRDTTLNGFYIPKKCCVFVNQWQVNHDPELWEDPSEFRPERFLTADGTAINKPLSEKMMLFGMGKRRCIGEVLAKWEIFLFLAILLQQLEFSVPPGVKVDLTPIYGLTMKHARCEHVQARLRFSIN
Kind of series: Cocktail CYP assay, phenacetin O-deethylation. The format is in vitro ADME. Conditions: human liver microsomes, 10 μM phenacetin; test concentrations up to 10 μM.

The target in another series is CYP3A4 (Homo sapiens, UniProt P08684). Nature of the series: IC50 vs CYP3A by inhibition of lopinavir metabolism in human liver microsomes. The format is biochemical. Conditions: pH 7.4, human liver microsomes, 1.5 μM lopinavir, 8 min at 37° C., test concentrations 0.098-100 nM, read-out: 3A4(LPV). As to the method: Determination of IC50 vs CYP3A by Measurement of Inhibition of Lopinavir Metabolism
Sequence of CYP3A4 (P08684 2-503): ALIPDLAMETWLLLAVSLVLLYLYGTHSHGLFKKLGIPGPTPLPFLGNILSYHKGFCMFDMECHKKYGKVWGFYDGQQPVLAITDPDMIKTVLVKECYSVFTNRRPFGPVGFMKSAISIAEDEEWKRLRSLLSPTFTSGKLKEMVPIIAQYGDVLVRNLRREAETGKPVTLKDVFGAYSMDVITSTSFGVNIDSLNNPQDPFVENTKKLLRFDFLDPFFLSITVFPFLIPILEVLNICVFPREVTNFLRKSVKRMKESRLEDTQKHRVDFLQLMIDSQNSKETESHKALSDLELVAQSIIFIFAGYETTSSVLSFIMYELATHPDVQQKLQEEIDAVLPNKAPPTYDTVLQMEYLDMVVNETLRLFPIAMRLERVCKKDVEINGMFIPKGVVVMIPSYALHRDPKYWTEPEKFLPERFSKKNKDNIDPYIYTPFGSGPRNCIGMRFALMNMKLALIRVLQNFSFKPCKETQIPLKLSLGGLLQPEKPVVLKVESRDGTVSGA
This assay was performed in a standard 96-well plate design. IC50 values were calculated from the percent inhibition observed for each test compound at 6 concentrations (for example, 0.098, 0.391, 1.56, 6.25, 25 and 100 nM). The incubation substrate mix contains 1.5 μM lopinavir, 0.01 mg/mL protein human liver microsomes (BD Gentest), 1 mM NAPDH, 3.3 mM MgCl2 and 100 mM potassium phosphate buffer (pH 7.4). The production of the sum of three hydroxylated metabolites (M2: 6-hydroxy lopinavir, M3: 4-hydroxy lopinavir, M4: 4-hydroxy lopinavir (epimer of M3), Kumar et al., 1999) was determined after incubation for 8 min at 37° C. Quantitation of the metabolite peak area ratio against an internal standard (tolbutamide) was determined by LC/MS/MS analysis following acetonitrile treatment of the incubations.
Samples were analyzed in the MRM mode with a SCIEX API-4000 mass spectrometer (Applied Biosystems, Foster City, Calif.), with a Shimadzu LC-20 AD pump (Shimadzu corporation, Kyoto, JP) and a CTC PAL autosampler (Agilent Technologies, Switzerland). A Phenomenex, Luna, 5 μm, 100 A, 2.00×30 mm HPLC column was used for the separation. The mobile phases were: (A) 0.1% formic acid in water and (B) 0.1% formic acid in acetonitrile. The binary gradient was as follows.
The peak area ratio of the analyte to the internal standard was used to quantify the metabolite. The values of peak area ratios in the presence of test compound were compared to those of maximum or minimum controls and were expressed as % inhibition by interpolating between the maximum and minimum peak area ratios. Incubations with no inhibitor were defined as the maxima and with 5 μM ketoconazole were defined as the minima
The following equation was used to calculate the % inhibition:
[1−[(X−Low control)/(High control−Low control)]]*100
For the IC50 calculation, SigmaPlot was used to plot the mean % inhibition versus the test compound concentrations and for non-linear regression analysis of the data. Depending on the range of data points defining the inhibition curve, the data may have been fit to the 4-parameter logistic equation.

T1 sequence (P10635 whole entry): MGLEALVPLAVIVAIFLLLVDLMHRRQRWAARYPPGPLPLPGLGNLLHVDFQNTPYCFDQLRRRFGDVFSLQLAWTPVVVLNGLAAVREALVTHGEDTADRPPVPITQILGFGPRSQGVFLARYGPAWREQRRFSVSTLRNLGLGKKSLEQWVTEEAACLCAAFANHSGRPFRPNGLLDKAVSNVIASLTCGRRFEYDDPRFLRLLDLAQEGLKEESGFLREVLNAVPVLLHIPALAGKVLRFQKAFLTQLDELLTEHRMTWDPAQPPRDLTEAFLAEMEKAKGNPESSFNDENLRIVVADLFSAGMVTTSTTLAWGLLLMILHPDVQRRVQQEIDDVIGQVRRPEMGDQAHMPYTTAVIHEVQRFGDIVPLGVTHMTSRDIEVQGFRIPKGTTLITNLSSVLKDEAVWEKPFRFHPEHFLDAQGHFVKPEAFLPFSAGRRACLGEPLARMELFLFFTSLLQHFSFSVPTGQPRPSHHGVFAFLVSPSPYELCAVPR

`C[C@H](c1ccc(F)cc1)n1cncc1CN1CCN(S(=O)(=O)c2cnc(N3CC[C@@H]4NCCO[C@H]4C3)s2)CC1` [Compound 15]: the IC50 on CYP2D6 was 3560 nM; on CYP2C19, greater than 10000 nM; on CYP1A2, greater than 10000 nM. Further, on CYP3A4, the IC50 at 8 min turned out to be 1.2 nM.

Regarding `C[C@H](c1ccc(F)cc1)n1cncc1CN1CCN(S(=O)(=O)c2cnc(N3CCN4C[C@H](O)CC4(C)C3)s2)CC1` (stereo partly drawn) [Compound 24], the IC50 is 3200 nM on CYP2D6, greater than 10000 nM at CYP2C19 and greater than 10000 nM against CYP1A2. For the same molecule, the IC50 at 8 min at CYP3A4 amounted to 1.9 nM.

Regarding `C[C@H](c1ccc(F)cc1)n1cncc1CN1CCN(S(=O)(=O)c2cnc(NCC(F)CN)s2)CC1` (stereo partly drawn) [Compound 17], the IC50 against CYP2D6 was determined as 3380 nM; on CYP2C19 it was 2250 nM; on CYP1A2 it was 2190 nM. Also, at CYP3A4, the IC50 at 8 min was found to be 1.7 nM.

For `C[C@H](c1ccc(F)cc1)n1cncc1CN1CCN(S(=O)(=O)c2cncc(N3CCNCC3)c2)CC1` [Compound 29], the IC50 against CYP2D6, against CYP2C19 and against CYP1A2 was greater than 10000 nM each time. Also, the IC50 at 8 min at CYP3A4 was found to be 2.9 nM.

As to `C[C@H](c1ccc(F)cc1)n1cncc1C1COCC2CN(S(=O)(=O)c3cnc(Nc4ccccn4)s3)CCN21` (stereo partly drawn) [Compound 40], the IC50 was 2890 nM on CYP2D6, 3050 nM against CYP2C19 and greater than 10000 nM on CYP1A2. The IC50 at 8 min on CYP3A4 worked out at 0.8 nM.

Regarding `C[C@H](c1ccc(F)cc1)n1cncc1CN1CCN(S(=O)(=O)c2cnc(N3C[C@@H]4C[C@@H](O)CN4C[C@@H]3C)s2)CC1` [Compound 21], the IC50 was 6180 nM against CYP2D6, no less than 10000 nM at CYP2C19 and greater than 10000 nM at CYP1A2. Besides, at CYP3A4, the IC50 at 8 min is 1.9 nM.

Take `C[C@H](c1ccc(F)cc1)n1cncc1CN1CCN(S(=O)(=O)c2cnc(N3CCNCC3)s2)CC1` [Compound 1]: the IC50 against CYP2D6 was 2780 nM; at CYP2C19, 2530 nM; on CYP1A2, greater than 10000 nM. For the same molecule, the IC50 at 8 min at CYP3A4 came to 1.4 nM.

As to `C[C@H](c1ccc(F)cc1)n1cncc1C1C(=O)OCC2CN(S(=O)(=O)c3cnc(Nc4ccc(C(F)(F)F)cn4)s3)CCN21` (stereo partly drawn) [Compound 39], the figures for the IC50 against CYP2D6, on CYP2C19 and against CYP1A2 were 2180 nM, 2650 nM and 3730 nM, respectively. Also, the IC50 at 8 min at CYP3A4 is 8 nM.

Turning to `CN1CCN(c2ncc(S(=O)(=O)N3CCN(Cc4cncn4CCOc4ccc(Cl)cc4)CC3)s2)CC1` [Compound 32], the IC50 on CYP2D6 is 1300 nM; against CYP2C19, 3440 nM; against CYP1A2 it was greater than 10000 nM. The IC50 at 8 min on CYP3A4 is 1.2 nM.

As for `C[C@H](c1ccc(F)cc1)n1cncc1CN1CCN(S(=O)(=O)c2cnc(N3CCN4C[C@H](O)C[C@H]4C3=O)s2)CC1` [Compound 18], the results for the IC50 against CYP2D6, against CYP2C19 and against CYP1A2 were 5000 nM, 2160 nM and greater than 10000 nM, respectively. The IC50 at 8 min at CYP3A4 turned out to be 1.1 nM.

As for `C[C@H](c1ccc(F)cc1)n1cncc1CN1CCN(S(=O)(=O)c2cnc(N3CCN(C4CCN(C)CC4)CC3)s2)CC1` [Compound 9], the IC50 against CYP2D6, against CYP2C19 and against CYP1A2 was greater than 10000 nM each time. Also, the IC50 at 8 min on CYP3A4 worked out at 2.8 nM.

As for `C[C@H](c1ccc(F)cc1)n1cnnc1CN1CCN(S(=O)(=O)c2cnc(N3CCN4C[C@H](O)C[C@H]4C3)s2)CC1` [Compound 42], the IC50 on CYP2D6, at CYP2C19 and against CYP1A2 was greater than 10000 nM throughout. The IC50 at 8 min at CYP3A4 was 32 nM.
